Data: US7411076B2, “Coumarin derivative” (Institute of Medicinal Molecular Design, Inc., priority 2002, dated 2008)

system: Jurkat cells; test: Jurkat cell proliferation, compound alone or in combination with bleomycin, living cells counted by the MTS method; type: cell-based; conditions: Jurkat cells, combined with bleomycin 5 μg/ml or 10 μg/ml, 36 hours, survival rate vs DMSO control
Experimental: By using these compounds, effects on proliferation of Jurkat cells by sole administration and inhibitory effects on cell proliferation by administration in combination with bleomycin were examined. Materials and methods are as follows. Jurkat cells obtained from Dainippon Pharmaceutical Co. Ltd. were inoculated at about 10,000 cells per well in a 96 well culture plate, and incubated in 10% bovine fetal serum (Irvine Scientific) supplemented with RPMI1640(ICN) medium in 5% CO2 incubator at 37° C. […] 36 hours after the incubation, the number of living cells was counted by the MTS method.
More specifically, 20 μl of CellTiter96™ AQueous One Solution (Promega) was added per one well, and after the cells were incubated for additional one hour, an absorbance at 490 nm was measured by using a microplate reader. The same culture added with DMSO as a solvent at final concentration of 0.25% was used as a control. The number of cells in the control was considered as 100% survival rate, and for each compound, survival rates by sole administration or a combined administration were calculated. […] In the table, ++ indicates observation of remarkable enhancement, + indicates moderated enhancement, and ± indicates weak enhancement.

Molecule | Activity (enhancement of the inhibitory effect of bleomycin on cell proliferation)
N#Cc1ccc(C(=O)Nc2cc3ccc(O)cc3oc2=O)cc1 [Compound 22, 4-cyano-N-(7-hydroxy-2-oxo-2H-1-benzopyran-3-yl)benzamide] | +
O=C(Nc1cc2ccc(O)cc2oc1=O)c1cccc2ccccc12 [Compound 23, N-(7-hydroxy-2-oxo-2H-1-benzopyran-3-yl)-1-naphthalenecarboxamide] | +
O=C(Nc1cc2ccc(O)cc2oc1=O)c1ccco1 [Compound 25, N-(7-hydroxy-2-oxo-2H-1-benzopyran-3-yl)-2-furancarboxamide] | ±
O=C(Nc1cc2ccc(O)cc2oc1=O)c1cccnc1Cl [Compound 27, 2-chloro-N-(7-hydroxy-2-oxo-2H-1-benzopyran-3-yl)-3-pyridinecarboxamide] | ±
O=C(Nc1cc2ccc(O)cc2oc1=O)c1ccc(-c2ccccc2)cc1 [Compound 14, N-(7-hydroxy-2-oxo-2H-1-benzopyran-3-yl)-[1,1′-biphenyl]-4-carboxamide] | ++
COc1ccccc1C(=O)Nc1cc2ccc(O)cc2oc1=O [Compound 15, N-(7-hydroxy-2-oxo-2H-1-benzopyran-3-yl)-2-methoxybenzamide] | ±
COc1cccc(C(=O)Nc2cc3ccc(O)cc3oc2=O)c1 [Compound 16, N-(7-hydroxy-2-oxo-2H-1-benzopyran-3-yl)-3-methoxybenzamide] | ±
O=C(Nc1cc2ccc(O)cc2oc1=O)c1ccccc1Cl [Compound 2, 2-chloro-N-(7-hydroxy-2-oxo-2H-1-benzopyran-3-yl)benzamide] | +
O=C(Nc1cc2ccc(O)cc2oc1=O)c1ccccc1 [Compound 1, N-(7-hydroxy-2-oxo-2H-1-benzopyran-3-yl)benzamide] | ±
CC(C)(C)C(=O)Nc1cc2ccc(O)cc2oc1=O [Compound 29, N-(7-hydroxy-2-oxo-2H-1-benzopyran-3-yl)-2,2-dimethylpropanamide] | ±
O=C(Cc1ccccc1)Nc1cc2ccc(O)cc2oc1=O [Compound 30, N-(7-hydroxy-2-oxo-2H-1-benzopyran-3-yl)benzeneacetamide] | +
COC(=O)c1ccc(C(=O)Nc2cc3ccc(O)cc3oc2=O)cc1 [Compound 21, 4-[[N-(7-hydroxy-2-oxo-2H-1-benzopyran-3-yl)amino]carbonyl]benzoic acid methyl ester] | ±
O=C(Nc1cc2ccc(O)cc2oc1=O)c1ccc2c(c1)OCO2 [Compound 28, N-(7-hydroxy-2-oxo-2H-1-benzopyran-3-yl)-1,3-benzodioxole-5-carboxamide] | ±
O=C(Nc1cc2ccc(O)cc2oc1=O)c1ccc(F)cc1 [Compound 6, 4-fluoro-N-(7-hydroxy-2-oxo-2H-1-benzopyran-3-yl)benzamide] | ±
O=C(Nc1cc2ccc(O)cc2oc1=O)c1cccs1 [Compound 26, N-(7-hydroxy-2-oxo-2H-1-benzopyran-3-yl)-2-thiophenecarboxamide] | ±
O=C(Nc1cc2ccc(O)cc2oc1=O)c1cccc(Br)c1 [Compound 4, 3-bromo-N-(7-hydroxy-2-oxo-2H-1-benzopyran-3-yl)benzamide] | +
O=C(Nc1cc2ccc(O)cc2oc1=O)c1cccc(Cl)c1 [Compound 3, 3-chloro-N-(7-hydroxy-2-oxo-2H-1-benzopyran-3-yl)benzamide] | +
Cc1ccccc1C(=O)Nc1cc2ccc(O)cc2oc1=O [Compound 8, N-(7-hydroxy-2-oxo-2H-1-benzopyran-3-yl)-2-methylbenzamide] | +
O=C(Nc1cc2ccc(O)cc2oc1=O)c1ccc(Cl)cc1 [Compound 5, 4-chloro-N-(7-hydroxy-2-oxo-2H-1-benzopyran-3-yl)benzamide] | ±
O=C(Nc1cc2ccc(O)cc2oc1=O)c1ccc(C(F)(F)F)cc1 [Compound 13, N-(7-hydroxy-2-oxo-2H-1-benzopyran-3-yl)-4-(trifluoromethyl)benzamide] | +
O=C(Nc1cc2ccc(O)cc2oc1=O)c1ccc2ccccc2c1 [Compound 24, N-(7-hydroxy-2-oxo-2H-1-benzopyran-3-yl)-2-naphthalenecarboxamide] | ±
O=C(Nc1cc2ccc(O)cc2oc1=O)c1ccc([N+](=O)[O-])cc1 [Compound 20, N-(7-hydroxy-2-oxo-2H-1-benzopyran-3-yl)-4-nitrobenzamide] | ±

same assay, conditions: bleomycin alone at 5 μg/ml or 10 μg/ml, 36 hours, DMSO control = 100% survival

Molecule | decrease in the survival rates of the Jurkat cells [%]
bleomycin [reference compound] | 5 to 10
